What was measured:
CT26.CL25 cells = assay: CT26.CL25 colon cancer model in B6 mice with/without CD8 depletion; format: in vivo; settings: CT26.CL25 s.c. in B6 mice, MC180295 20 mg/kg i.p. q.o.d., DAC 0.5 mg/kg i.p. daily
Procedure: Fig. 5 Survival and antitumor effects of MC180295, DAC, or their combination, with/without CD8 + T cells. A 20 mg/kg MC180295 was administered (i.p.) q.o.d. 0.5 mg/kg DAC was administered (i.p.) daily. Mouse survival in days. B Survival of B6 mice, after CD8 depletion, using an anti-CD8 antibody. 20 mg/kg MC180295 was administered (i.p.) q.o.d. 0.5 mg/kg DAC was administered (i.p.) daily. C Antitumor effects of MC180295 with and without CD8 depletion, using an anti-CD8 antibody. B6 mice were inoculated (s.c.) with 5 × 10^5 CT26.CL25 cells. Eight days later, when tumors were palpable, 20 mg/kg MC180295 was administered (i.p.) q.o.d. 0.5 mg/kg DAC was administered (i.p.) daily. Tumor sizes were measured using a caliper and calculated over vehicle. D Antitumor effects of DAC, with and without CD8 depletion, using an anti-CD8 antibody. B6 mice were inoculated (s.c.) with 5 × 10^5 CT26.CL25 cells. Eight days later, when tumors were palpable, 20 mg/kg MC180295 was administered (i.p.) q.o.d. 0.5 mg/kg DAC was administered (i.p.) daily. Tumor sizes were measured using a caliper and calculated over vehicle. E Antitumor effects of DAC + MC180295, with and without CD8 depletion, using an anti-CD8 antibody. B6 mice were inoculated (s.c.) with 5 × 10^5 CT26.CL25 cells. Eight days later, when tumors were palpable, 20 mg/kg MC180295 was administered (i.p.) q.o.d. 0.5 mg/kg DAC was administered (i.p.) daily. Tumor sizes were measured using a caliper and calculated over vehicle. Significances were calculated using log-rank (Mantel-Cox) or Student's T tests. Data shown as means ± SEMs
For the s.c. SW48 model, 2 × 10^6 cells were injected into the flanks of randomly assigned, gender-matched 8–10-week-old NSG mice. 20 mg/kg MC180379, MC180380, or MC180295 was injected (i.p.), every other day, when the tumors were palpable, 11 days after engraftment, until endpoints were met. Mice were sacrificed before tumor volumes exceeded 400 mm^2 (endpoint for this model). For the s.c. HT29 model, 2 × 10^6 cells were injected into the flanks of randomly assigned, gender-matched, 8–10-week-old NSG mice. […]

[1] = Drug toxicity: body weights and complete blood counts in tumor-bearing mice; format: in vivo; settings: MV4-11 model, NSG mice, Fig. S4D
MV4-11-luc cells = assay: MV4-11-luc AML model in NSG mice; settings: MV4-11-luc in NSG mice, 0.5 mg/kg DAC i.p. daily alone
Procedure: E NSG mice were inoculated (i.p.) with 5 × 10^5 MV4-11-luc cells. Four days later, when substantial tumor burden was evident by bioluminescence imaging, MC180379, MC180380, or vehicle were administered (i.p.) q.o.d at 20 mg/kg. Luciferase expression was quantified and calculated. F Mouse survival in days. […] Significances were calculated using log-rank (Mantel-Cox) or Student’s t tests.
0.5 mg/kg DAC was administered (i.p.) daily. […] B Mouse survival in days. 20 mg/kg MC180295 was administered (i.p.) q.o.d. 0.5 mg/kg DAC was administered (i.p.) daily. C NSG mice were inoculated (i.p.) with 5 × 10^5 MV4-11-luc cells. Four days later, when substantial tumor burden was evident by bioluminescence imaging, MC180295 (20 mg/kg) or vehicle were administered (i.p.) every other day. 0.5 mg/kg DAC was administered (i.p.) daily. Luciferase expression was quantified and calculated. […] 0.5 mg/kg DAC was administered (i.p.) daily. Mouse survival shown in days. Significances were calculated using log-rank (Mantel-Cox) or Student's t tests. Data are shown as means ± SEMs. ***p < 0.001
Both female and male NOD.Cg-Prkdcscid Il2rgtm1Wjl/SzJ (NSG) mice were used for the experiments. Age- and gender-matched mice were randomly assigned to each group. 8–10-week-old NSG mice were tail vein-injected with 5 × 10^5 MV4-11-luc cells. […] Natural death or accumulation of ascites fluid were used as endpoints.

CDK9 = molecular target: T1, CDK9 (Homo sapiens, UniProt P50750); parameters: method as in PMID 26083714; settings: cited from earlier work
T1 construct: purchased Reaction Biology Corp
T1 sequence (P50750 whole entry): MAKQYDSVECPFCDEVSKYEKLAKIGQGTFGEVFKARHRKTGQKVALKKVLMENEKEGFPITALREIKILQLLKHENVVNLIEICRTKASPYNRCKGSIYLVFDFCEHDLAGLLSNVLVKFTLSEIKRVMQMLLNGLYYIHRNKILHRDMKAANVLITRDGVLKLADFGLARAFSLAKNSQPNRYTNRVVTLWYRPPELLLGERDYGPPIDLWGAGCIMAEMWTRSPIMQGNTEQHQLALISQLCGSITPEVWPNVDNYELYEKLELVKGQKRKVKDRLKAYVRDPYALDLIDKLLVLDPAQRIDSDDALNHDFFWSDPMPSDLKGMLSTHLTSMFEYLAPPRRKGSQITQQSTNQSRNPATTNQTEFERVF
T1 sequence (O60563 whole entry partner): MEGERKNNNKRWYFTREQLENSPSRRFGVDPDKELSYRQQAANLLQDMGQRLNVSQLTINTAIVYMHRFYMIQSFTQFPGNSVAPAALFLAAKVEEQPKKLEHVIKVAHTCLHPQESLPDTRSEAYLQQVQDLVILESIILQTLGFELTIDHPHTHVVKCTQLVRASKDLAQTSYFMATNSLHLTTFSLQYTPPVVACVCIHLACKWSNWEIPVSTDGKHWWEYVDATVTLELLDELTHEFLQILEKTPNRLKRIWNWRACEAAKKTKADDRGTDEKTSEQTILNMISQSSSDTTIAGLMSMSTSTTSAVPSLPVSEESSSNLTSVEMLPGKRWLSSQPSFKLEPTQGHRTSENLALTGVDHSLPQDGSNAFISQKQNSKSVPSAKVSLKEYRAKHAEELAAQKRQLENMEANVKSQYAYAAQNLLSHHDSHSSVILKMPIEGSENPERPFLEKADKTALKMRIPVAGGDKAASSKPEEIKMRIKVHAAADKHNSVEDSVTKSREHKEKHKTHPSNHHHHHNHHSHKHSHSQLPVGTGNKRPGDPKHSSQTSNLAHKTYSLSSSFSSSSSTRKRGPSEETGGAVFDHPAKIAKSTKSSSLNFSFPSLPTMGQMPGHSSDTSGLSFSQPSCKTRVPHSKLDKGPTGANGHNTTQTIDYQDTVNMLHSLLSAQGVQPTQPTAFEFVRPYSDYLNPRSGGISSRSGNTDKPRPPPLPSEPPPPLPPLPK

Compound | tumor size (CT26.CL25 cells) | body weights [1] | survival (MV4-11-luc cells) | tumor suppression (luciferase) (MV4-11-luc cells) | selectivity toward CDK9, compared to CDKs 1, 2, 4, 7, and 8 (CDK9)
Nc1ncn([C@H]2C[C@H](O)[C@@H](CO)O2)c(=O)n1 [DAC, decitabine, reference compound] | significantly decrease tumor size, in a CD8 + T cell-dependent manner | did not affect NSG mouse body weights | did not show consistent tumor suppression or a survival benefit | did not show consistent tumor suppression | 
NC1CCC(Nc2cc(-c3cccc(NCc4cccc(F)c4)n3)c(Cl)cn2)CC1 (centres unmarked) [iCDK9] |  |  |  |  | more than 600 fold
